Patent US11396535B2, “Cyclic peptide analogs of melanocortin and amanitin and methods of making such” (THE UNIVERSITY OF BRITISH COLUMBIA, priority 2019, dated 2022)
Starred links: 1 amine or outer side, 2 acyl side, 3 side chain; linkers in the order of their positions; H or OH if unused. Positions of bridges follow the written chain, without caps; N, C: chain ends. Non-standard residues stand in square brackets, D forms with d. Residues, ends and D or L forms follow the SMILES beside them. ξ: configuration not given here. Ile(4R-OH,5-OH) = C[C@H]([C@H](N)C(=O)O)[C@@H](O)CO; X1 = O=C([C@H](Cn1cc2ccccc2c1[*:3])N[*:1])[*:2]; Hyp = O=C(O)[C@@H]1C[C@@H](O)CN1; Dap = NC[C@H](N)C(=O)O; ξC = NC(CS)C(=O)O

Legend:
[1] = tested on: CHO cells; type: cell-based; conditions: for toxicity (cytotoxicity): triplicate
Procedure: FIG. 6: Cytotoxicity assays—CHO cells were incubated with α-amanitin, the monocyclic octapeptide precursor and the FlICk-amanitin-1 for 72 h in triplicate and cell viability was assessed by spectrophotometry with MTT indicator.
FIGS. 11A-11B: MTT cell viability assay against CHO cells: (A) alpha-amanitin; (B) FlICk-amanitin.
Both FlICk amanitin and authentic α-amanitin (purchased from Sigma Aldrich) were dissolved in H2O. The FlICk amanitin concentrations used were 100 μM, 20 μM, 4 μM, 0.8 μM, 0.16 μM, 0.032 μM, 0.0064 μM, 0.00128 μM. The α-amanitin concentrations used were 10 μM, 2 μM, 0.4 μM, 0.08 μM, 0.016 μM, 0.0032 μM, 0.00064 μM, 0.000128 μM, 0.0000256 μM. The cell culture and MTT assay procedures were carried out as per our report on the total synthesis of α-amanitin^38. The MTT assays were run in triplicate. The IC50 assay curves were produced using Prism Software.

[2] = target: melanocortin receptors; conditions: literature value; cited from earlier work
[3] = tested on: CHO cells; conditions: literature value, read-out: IC50 (cytotoxic to CHO cells); cited from earlier work

CC[C@H](C)[C@@H]1NC(=O)CNC(=O)[C@@H]2Cn3cc4ccccc4c3SCC(NC(=O)CNC1=O)C(=O)N[C@@H](CC(N)=O)C(=O)N1C[C@H](O)C[C@H]1C(=O)N[C@@H]([C@@H](C)[C@@H](O)CO)C(=O)N2 [FlICk-amanitin-1] (cyclo(GIG[ξC]N[Hyp][Ile(4R-OH,5-OH)][X1]); thioether 4-8)
fold less toxic than α-amanitin ([1]; 72 h, MTT): approximately 100 fold | toxicity (cytotoxicity) ([1]; 72 h, MTT): detectable toxicity | fold less toxic than dideoxy-amanitin ([1]; versus dideoxy-amanitin IC50 of 2 μM): 20 fold

CC[C@H](C)[C@@H]1NC(=O)CNC(=O)[C@H](CN)NC(=O)[C@H]([C@@H](C)[C@@H](O)CO)NC(=O)[C@@H]2C[C@@H](O)CN2C(=O)[C@H](CC(N)=O)NC(=O)[C@H](CS)NC(=O)CNC1=O [monocyclic octapeptide precursor, Cyclo-[DhIle-Dap-Gly-Ile-Gly-Cys-Asn-Hyp]] (cyclo(CN[Hyp][Ile(4R-OH,5-OH)][Dap]GIG))
toxicity (cytotoxicity) ([1]; 72 h, MTT): no detectable toxicity

N-Acetyl-L-norleucyl-L-α-aspartyl-L-histidyl-D-phenylalanyl-L-arginyl-L-tryptophyl-L-lysinamide (2→7)-lactam [Melanotan-II]
Kd [2]: ~1 nM

α-amanitin
IC50 [3]: ~500 nM
